Experimental findings from PubChem BioAssay (NCI) are described below.

Values joined by “and” are separate entries in the source; they are usually repeats but may differ in a detail not shown here. Identical values can stand only once.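 Compound exposure: 48 hours, 5 concentrations, 96-well plates. GI50 marks 50% less growth. TGI denotes the concentration required for complete inhibition of growth.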

Test systems include OVCAR-4 ovarian; HCT-15 colon; LOX IMVI melanoma; SNB-19 CNS; UACC-257 melanoma; IGROV1 ovarian; MDA-MB-231 breast; UO-31 renal; A549 NSCLC; SN12C renal.
Test in all cases: NCI tumour cell line growth inhibition, 48 h

On to `C=CC(=O)Nc1cc(C)ccc1Nc1nc(Nc2cc(OC)ncc2C)ncc1C(F)(F)F`, for which the GI50 with OVCAR-4 ovarian was 1.34 µM; in the assay on HCT-15 colon it was 1.05 µM; in the assay on LOX IMVI melanoma, 0.142 µM; in the assay on SNB-19 CNS, 0.936 µM; in the assay on UACC-257 melanoma, 0.152 µM; in the assay on IGROV1 ovarian, 0.244 µM. Also, the GI50 was 0.336 µM with MDA-MB-231 breast, 0.214 µM in the assay on UO-31 renal, 1.02 µM in the assay on A549 NSCLC and 0.714 µM with SN12C renal. Further, the TGI with OVCAR-4 ovarian is above 100 µM; with HCT-15 colon it was above 28.5 µM; in the assay with LOX IMVI melanoma it was 1.03 µM; in the assay with SNB-19 CNS it was above 100 µM; with UACC-257 melanoma, 1.08 µM; with IGROV1 ovarian, 1.25 µM. For the same compound, the TGI in the assay with MDA-MB-231 breast is 1.87 µM; in the assay with UO-31 renal, 2.27 µM; in the assay with A549 NSCLC, 4.59 µM; in the assay with SN12C renal it was above 100 µM.

For the compound `COc1cccc(NC(=O)c2sc3nc(C)c(C(O)c4ccccc4)cc3c2N)c1` (centres undefined), the GI50 in the assay with OVCAR-4 ovarian was 0.811 µM; in the assay with HCT-15 colon, 0.0924 µM; in the assay with LOX IMVI melanoma it was 0.264 µM; with SNB-19 CNS it was 0.467 µM; with UACC-257 melanoma, 2.72 µM; in the assay on IGROV1 ovarian it was 0.441 µM. For the same compound, the GI50 is 0.345 µM in the assay on MDA-MB-231 breast, 0.85 µM in the assay on UO-31 renal, 0.402 µM in the assay on A549 NSCLC and 0.421 µM with SN12C renal. Also, the TGI with OVCAR-4 ovarian was found to be 32.7 µM; with HCT-15 colon, 12.4 µM; in the assay on LOX IMVI melanoma it was 18.6 µM; in the assay on SNB-19 CNS, 74.6 µM; in the assay with UACC-257 melanoma it was 35.1 µM; with IGROV1 ovarian it was 16.8 µM. Moreover, the TGI in the assay with MDA-MB-231 breast turned out to be 33.5 µM; in the assay on UO-31 renal, 18.9 µM; with A549 NSCLC, 21 µM; in the assay on SN12C renal, 17.6 µM.

In the case of `COc1c2ccoc2c(OC)c2oc(=O)ccc12`, the TGI in the assay with OVCAR-4 ovarian, in the assay with HCT-15 colon, with LOX IMVI melanoma, in the assay with SNB-19 CNS, in the assay with UACC-257 melanoma and in the assay with IGROV1 ovarian was above 100 µM throughout. Besides, the TGI in the assay with MDA-MB-231 breast, in the assay with UO-31 renal, with A549 NSCLC and with SN12C renal was above 100 µM in each case.

For the compound `C[C@@]12CCC[C@@](C)(C(=O)O)C1CC[C@]13C[C@@](O)(CO)[C@](O)(CCC12)C3` (some centres undefined), the GI50 with OVCAR-4 ovarian, with HCT-15 colon, in the assay with LOX IMVI melanoma, with SNB-19 CNS, in the assay on UACC-257 melanoma and in the assay with IGROV1 ovarian was above 100 µM in each case. In addition, the GI50 in the assay with MDA-MB-231 breast, in the assay on UO-31 renal, in the assay with A549 NSCLC and with SN12C renal was above 100 µM throughout. Further, the TGI in the assay on OVCAR-4 ovarian, in the assay with HCT-15 colon, in the assay on LOX IMVI melanoma, with SNB-19 CNS, in the assay with UACC-257 melanoma and in the assay on IGROV1 ovarian was above 100 µM each time. Besides, the TGI with MDA-MB-231 breast, in the assay with UO-31 renal, in the assay with A549 NSCLC and with SN12C renal was above 100 µM each time.

In the case of `CC(C)=CCC/C(C)=C/CC/C(C)=C/CSc1ccccc1C(=O)O`, the GI50 was 31.5 µM with OVCAR-4 ovarian; 28.6 µM in the assay with HCT-15 colon; 26.6 µM with LOX IMVI melanoma; 39.7 µM with SNB-19 CNS; 30.5 µM in the assay with UACC-257 melanoma; 29.3 µM in the assay with IGROV1 ovarian. The GI50 in the assay with MDA-MB-231 breast is 28.3 µM; with UO-31 renal, 17.7 µM; in the assay on A549 NSCLC, 28.9 µM. Further, the TGI was above 100 µM in the assay with OVCAR-4 ovarian; > 100 µM and 32 µM in the assay with HCT-15 colon; > 68.5 µM and 35.4 µM in the assay on LOX IMVI melanoma; > 100 µM and 41.1 µM with SNB-19 CNS; above 100 µM in the assay on UACC-257 melanoma; 70.5 µM and 35.5 µM in the assay with IGROV1 ovarian. Also, the TGI in the assay with MDA-MB-231 breast was 61.7 µM and 55.8 µM; in the assay with UO-31 renal, 37.1 µM; with A549 NSCLC, > 89.4 µM and 43.3 µM; with SN12C renal, 56.4 µM and 51.9 µM.

With `Cn1cnc([N+](=O)[O-])c1Sc1nc(N)nc2c1ncn2C1CC(O)C(CO)O1` (centres undefined), the TGI in the assay on OVCAR-4 ovarian is above 83.1 µM; with HCT-15 colon, above 100 µM; in the assay on LOX IMVI melanoma, above 100 µM; with SNB-19 CNS it was above 100 µM; with UACC-257 melanoma, above 100 µM; in the assay with IGROV1 ovarian, above 100 µM. For the same compound, the TGI in the assay with MDA-MB-231 breast is above 100 µM; with UO-31 renal, 44.9 µM; with A549 NSCLC it was above 100 µM; in the assay with SN12C renal, above 100 µM.

With `C/C(=N\NS(=O)(=O)c1ccc(C)cc1)P(=O)(O)O`, the TGI in the assay on OVCAR-4 ovarian, in the assay on HCT-15 colon, in the assay on LOX IMVI melanoma, in the assay with SNB-19 CNS, with UACC-257 melanoma and in the assay on IGROV1 ovarian was above 100 µM in each case. For the same compound, the TGI in the assay with MDA-MB-231 breast, in the assay with UO-31 renal, in the assay with A549 NSCLC and in the assay on SN12C renal was above 100 µM throughout.

With `C=C1CCC2C3(C)COC(c4ccccc4)OC3CCC2(C)C1/C=C/C1=CCOC1=O` (centres undefined), the GI50 in the assay on OVCAR-4 ovarian was 3.63 µM; with HCT-15 colon, 2.41 µM; in the assay on LOX IMVI melanoma it was 1.7 µM; in the assay with SNB-19 CNS, 35.8 µM; in the assay with UACC-257 melanoma it was 63.4 µM; in the assay on IGROV1 ovarian it was 3.4 µM. For the same compound, the GI50 in the assay with MDA-MB-231 breast was 12.5 µM; with UO-31 renal it was 4.88 µM; in the assay with A549 NSCLC, 6.87 µM; with SN12C renal it was 3.82 µM. Also, the TGI is 16.3 µM with OVCAR-4 ovarian; 11.5 µM with HCT-15 colon; 4.25 µM in the assay with LOX IMVI melanoma; above 100 µM in the assay on SNB-19 CNS; above 100 µM in the assay with UACC-257 melanoma; 11.9 µM with IGROV1 ovarian. Also, the TGI in the assay with MDA-MB-231 breast turned out to be 43 µM; in the assay on UO-31 renal, 18.2 µM; in the assay with A549 NSCLC it was 48.1 µM; in the assay with SN12C renal, 15.9 µM.

With `Clc1ccc(-c2c3c(nn2-c2ccccn2)CCc2ccccc2-3)cc1Cl`, the GI50 was 39.8 µM in the assay on OVCAR-4 ovarian; above 100 µM in the assay on HCT-15 colon; above 100 µM in the assay with LOX IMVI melanoma; above 100 µM in the assay on SNB-19 CNS; above 100 µM in the assay on UACC-257 melanoma; above 100 µM with IGROV1 ovarian. The GI50 in the assay on MDA-MB-231 breast was 73.7 µM; with UO-31 renal, above 100 µM; with A549 NSCLC it was above 100 µM; in the assay on SN12C renal, above 100 µM. The TGI in the assay with OVCAR-4 ovarian, in the assay with HCT-15 colon, with LOX IMVI melanoma, with SNB-19 CNS, in the assay with UACC-257 melanoma and with IGROV1 ovarian was above 100 µM each time. Further, the TGI in the assay with MDA-MB-231 breast, with UO-31 renal, in the assay on A549 NSCLC and with SN12C renal was above 100 µM each time.
